The values below come from patent US11945822B2, “Pyrazolo-triazine and/or pyrazolo-pxrimidine derivatives as selective inhibitor of cyclin dependent kinase” (QURIENT CO., LTD., priority 2018, dated 2024).

The subject of assay [1] is A2780. Briefly: Cellular A2780 viability assay (CellTiter-Glo, 72 hours). Format: cell-based. Conditions: Homo sapiens. The source says:
Human T-cell acute lymphoblastic leukemia cell line, MOLT-4 (ATCC, Cat #CRL-1582), Human multiple myeloma cell line, RPMI-8226 (Invitrogen, Cat #22400-089) and MM.1S (ATCC, Cat #CRL-2974), NSCLC (Non-small cell lung cancer) cell line H460 (ATCC, Cat #HTB-177), Human colon colorectal carcinoma cell line HCT116 (ATCC, Cat #CCL-247), Human acute monocytic leukemia cell line MV4-11 (ATCC, Cat #CRL-9591), OVCAR-3 (ATCC, Cat #HTB-161) and A2780 (ECACC, Cat #93112519) were obtained from ATCC. Cells were grown in RPMI-1640 media (Invitrogen, Cat #22400-089) supplemented with 10% FBS (Invitrogen, Cat #10099141) and 1% penicillin/streptomycin (Invitrogen, Cat #15070063) and cultured at 37° C., 5% CO2 in a humidified chamber. All cell lines were routinely tested for mycoplasma.
The effect of the CDK7 inhibitor to inhibit the growth of target cancer cells was evaluated through the 72 hours time period of viability assay. Briefly, the candidate cell line ware plated in 96 well plate at the following density of cells respectively. 1×10^4 cells/well for MOLT-4, RPMI-8226, MV4-11 and MM.1S, 5×10^3 for H460, HCT116 and OVCAR-3 and IX 10^3 for A2780. After 24 hours, the cells were treated with various concentrations of the compound (ranging from 0.0015 uM to 10 uM). DMSO solvent without compound served as a control and final DMSO concentration less than 0.1%. After 72 hours of incubation at 37° C., 5% CO2 incubator, cells were analyzed for the viability using the CellTiter-Glo Luminescent Cell Viability Assay (Promega, Cat #G7570). All viability assays were performed in duplicate and Luminescence was read using an Envision (Perkin Elmer, USA). Data was analyzed using XLfit software.
(In general: Cellular ATP, detected with luciferase, serves as a proxy for viable cell number.)

The target in assay [2] is T1, CDK7/Cyclin H/MNAT1 (Homo sapiens, UniProt P50613).
T1 construct: purchased Invitrogen PR6749B
Put plainly: Enzymatic assay for CDK7 (FRET based LANCE Ultra kinase assay). Format: biochemical. Conditions: for IC50: read-out: CDK7 enzymatic activity (IC50 activity range). The method, boiled down:
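LANCE Ultra TR-FRET kinase assay using a ULight-labeled peptide substrate and a Eu-labeled anti-phospho antibody, with ATP at its Km. Purified CDK/cyclin complex was added to compound after brief centrifugation.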
A general note: In TR-FRET formats the signal depends on donor and acceptor labels being close together.

Assay [3] has as its target T2, CDK1/Cyclin B (Homo sapiens, UniProt P06493).
T2 construct: purchased Invitrogen PR4768C
Briefly: Enzymatic assay for CDK1 (FRET based LANCE Ultra kinase assay). Format: biochemical. Particulars: read-out: CDK1 enzymatic activity (IC50 activity range). The method, boiled down:
(§1)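 Each CDK complex ([…]) phosphorylated 68 nM ULight-MBP peptide with ATP at Km for 60 min at 23° C., against 8 compound doses (4-fold dilutions). EDTA/Eu-anti-phospho-MBP detection, 60 min, then TR-FRET emission at 615 and 665 nm.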

Assay [4] concerns H460. Briefly: Cellular H460 viability assay (CellTiter-Glo, 72 hours). Format: cell-based. Particulars: Homo sapiens, NCI-H460. In a few lines:
(§2)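 Steps: seed cells at per-line density; add compound, DMSO vehicle kept under 0.1% final; incubate 72 h, 37 °C, 5% CO2; lyse with CellTiter-Glo and read luminescence; run in duplicate.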

The target of assay [5] is T3, CDK2/Cyclin A (Homo sapiens, UniProt P24941).
T3 construct: purchased Invitrogen PV6290
Put plainly: Enzymatic assay for CDK2 (FRET based LANCE Ultra kinase assay). Format: biochemical. Particulars: read-out: CDK2 enzymatic activity (IC50 activity range). In a few lines: as §1

The target of assay [6] is T4, CDK5/p25 (Homo sapiens, UniProt Q00535).
T4 construct: purchased Invitrogen PR8543B
Briefly: Enzymatic assay for CDK5 (FRET based LANCE Ultra kinase assay). Conditions: read-out: CDK5 enzymatic activity (IC50 activity range). Format: biochemical. The method, boiled down: as §1

In assay [7] the test system is MV4-11. Put plainly: Cellular MV4-11 viability assay (CellTiter-Glo, 72 hours). Format: cell-based. Particulars: Homo sapiens. The method, boiled down:
as §2

T4 sequence (Q00535 whole entry): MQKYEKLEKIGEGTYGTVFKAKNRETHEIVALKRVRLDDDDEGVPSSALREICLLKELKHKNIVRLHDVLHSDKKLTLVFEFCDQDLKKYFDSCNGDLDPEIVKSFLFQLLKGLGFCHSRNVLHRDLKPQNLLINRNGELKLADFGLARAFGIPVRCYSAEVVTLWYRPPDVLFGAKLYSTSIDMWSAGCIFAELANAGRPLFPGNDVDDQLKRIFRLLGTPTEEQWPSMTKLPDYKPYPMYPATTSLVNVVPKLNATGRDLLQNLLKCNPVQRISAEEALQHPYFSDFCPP
T4 sequence (Q15078 99-307 partner limits assumed): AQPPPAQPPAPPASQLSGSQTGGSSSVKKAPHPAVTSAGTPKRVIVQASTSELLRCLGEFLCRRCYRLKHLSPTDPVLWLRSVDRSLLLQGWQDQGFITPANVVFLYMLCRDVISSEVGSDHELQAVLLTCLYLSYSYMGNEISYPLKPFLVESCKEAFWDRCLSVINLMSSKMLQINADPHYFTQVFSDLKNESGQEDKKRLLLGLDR
T1 sequence (P50613 whole entry): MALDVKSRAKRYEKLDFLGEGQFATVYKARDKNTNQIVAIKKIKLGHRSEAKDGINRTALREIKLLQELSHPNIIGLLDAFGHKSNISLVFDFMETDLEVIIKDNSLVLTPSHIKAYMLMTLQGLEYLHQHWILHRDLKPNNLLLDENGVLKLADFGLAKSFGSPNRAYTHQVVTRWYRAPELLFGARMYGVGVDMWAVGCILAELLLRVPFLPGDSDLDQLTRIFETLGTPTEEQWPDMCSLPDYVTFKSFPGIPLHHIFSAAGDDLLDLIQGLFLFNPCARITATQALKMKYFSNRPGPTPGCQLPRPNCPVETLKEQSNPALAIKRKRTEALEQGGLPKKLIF
T1 sequence (P51946 whole entry partner): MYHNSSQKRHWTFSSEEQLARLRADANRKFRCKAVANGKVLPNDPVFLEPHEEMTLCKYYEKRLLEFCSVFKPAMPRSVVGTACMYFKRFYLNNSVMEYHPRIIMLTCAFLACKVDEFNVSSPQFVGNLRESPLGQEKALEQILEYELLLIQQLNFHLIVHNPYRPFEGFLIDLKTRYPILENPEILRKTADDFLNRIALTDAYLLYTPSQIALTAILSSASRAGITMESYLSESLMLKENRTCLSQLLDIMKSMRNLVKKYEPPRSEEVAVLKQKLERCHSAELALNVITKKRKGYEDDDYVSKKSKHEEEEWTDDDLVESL
T1 sequence (P51948 whole entry partner): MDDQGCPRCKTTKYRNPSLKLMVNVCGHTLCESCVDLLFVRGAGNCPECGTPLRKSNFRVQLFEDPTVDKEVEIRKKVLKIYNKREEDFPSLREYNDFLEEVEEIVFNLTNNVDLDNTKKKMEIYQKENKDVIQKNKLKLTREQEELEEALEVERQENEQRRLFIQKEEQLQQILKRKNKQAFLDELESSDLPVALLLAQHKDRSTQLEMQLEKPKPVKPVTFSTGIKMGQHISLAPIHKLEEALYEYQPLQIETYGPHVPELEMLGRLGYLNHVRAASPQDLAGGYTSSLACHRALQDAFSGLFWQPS
T2 sequence (P06493 whole entry): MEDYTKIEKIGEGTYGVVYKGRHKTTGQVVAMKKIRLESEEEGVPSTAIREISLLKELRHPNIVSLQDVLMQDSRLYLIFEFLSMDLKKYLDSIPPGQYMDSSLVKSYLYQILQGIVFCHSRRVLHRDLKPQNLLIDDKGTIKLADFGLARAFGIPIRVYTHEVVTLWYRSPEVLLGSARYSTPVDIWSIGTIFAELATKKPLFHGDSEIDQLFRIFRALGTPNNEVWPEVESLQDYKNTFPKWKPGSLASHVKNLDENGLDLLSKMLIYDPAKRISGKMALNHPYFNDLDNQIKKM
T2 sequence (P14635 whole entry partner): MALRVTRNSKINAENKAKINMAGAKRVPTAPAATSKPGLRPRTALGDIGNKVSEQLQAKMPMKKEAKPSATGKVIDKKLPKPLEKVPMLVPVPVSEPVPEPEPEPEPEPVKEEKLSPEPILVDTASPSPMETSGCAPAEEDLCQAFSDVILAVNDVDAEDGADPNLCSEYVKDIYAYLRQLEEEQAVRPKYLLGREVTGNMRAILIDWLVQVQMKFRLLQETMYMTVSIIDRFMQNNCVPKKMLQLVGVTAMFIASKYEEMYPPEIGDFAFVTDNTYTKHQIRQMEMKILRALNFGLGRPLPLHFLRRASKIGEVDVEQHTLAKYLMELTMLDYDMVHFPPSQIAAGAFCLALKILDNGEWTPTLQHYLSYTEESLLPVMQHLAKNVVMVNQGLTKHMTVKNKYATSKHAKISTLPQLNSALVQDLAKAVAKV

For the molecule `CC(C)c1cnn2c(NCc3ccccc3-c3ccc4ccccc4n3)nc(O[C@H]3CC[C@H](O)CC3)nc12` [Compound 273], the IC50 – broadly, the midpoint of a concentration-inhibition curve – in assay [1] was 1000 to 10000 nM; in assay [2], < 100 nM; in assay [3] it was > 1000 nM; in assay [4], 1000 to 10000 nM; in assay [5], > 1000 nM; in assay [6] it was > 1000 nM. Also, in assay [7], the concentration for half-maximal inhibition (IC50) was in the range of 1000 to 10000 nM. Besides, in assay [2], the “CDK1/CDK7: Selectivity of CDK7 inhibition over CDK1 inhibition” value is reported as “A (A=greater than 200 fold)”. Besides, the “CDK2/CDK7: Selectivity of CDK7 inhibition over CDK2 inhibition” value in assay [2] is “A (A=greater than 200 fold)”. In addition, the “CDK5/CDK7: Selectivity of CDK7 inhibition over CDK5 inhibition” value in assay [2] is given as “A (A=greater than 200 fold)”.
As to `CC(C)c1cnn2c(NCc3ccccc3-n3cccn3)nc(N3CCc4ncccc4C3)nc12` [Compound 275], the IC50 was 1000 to 10000 nM in assay [1]; < 100 nM in assay [2]; > 1000 nM in assay [3]; 1000 to 10000 nM in assay [4]; > 1000 nM in assay [5]; > 1000 nM in assay [6]. In assay [7], the concentration for half-maximal inhibition (IC50) lay in the range of 1000 to 10000 nM. In assay [2], the “CDK1/CDK7: Selectivity of CDK7 inhibition over CDK1 inhibition” value is “A (A=greater than 200 fold)”. Further, the “CDK2/CDK7: Selectivity of CDK7 inhibition over CDK2 inhibition” value in assay [2] is listed as “B (B=less than 200 fold, but greater than 20 fold)”. Also, in assay [2], the “CDK5/CDK7: Selectivity of CDK7 inhibition over CDK5 inhibition” value is on record as “B (B=less than 200 fold, but greater than 20 fold)”.
For `CC(C)c1cnn2c(NCc3c(Cl)cccc3N3CC[C@H](C(C)(C)O)C3)nc(N3CCC(N)CC3)nc12` [Compound 250], the concentration for half-maximal inhibition (IC50) is 1000 to 10000 nM in assay [1]; < 100 nM in assay [2]; > 1000 nM in assay [3]; 1000 to 10000 nM in assay [4]; > 1000 nM in assay [5]; > 1000 nM in assay [6]. In addition, the IC50 in assay [7] lay within 1000 to 10000 nM. The “CDK1/CDK7: Selectivity of CDK7 inhibition over CDK1 inhibition” value in assay [2] was “A (A=greater than 200 fold)”. In addition, in assay [2], the “CDK2/CDK7: Selectivity of CDK7 inhibition over CDK2 inhibition” value is “A (A=greater than 200 fold)”. In assay [2], the “CDK5/CDK7: Selectivity of CDK7 inhibition over CDK5 inhibition” value is given as “B (B=less than 200 fold, but greater than 20 fold)”.
As for `CC(C)c1cnn2c(NCc3c(Cl)cccc3-n3ccc(C(C)(C)O)n3)nc(N3CCC(F)(CN)CC3)nc12` [Compound 252], the IC50 is ≤ 1000 nM in assay [1]; < 100 nM in assay [2]; > 1000 nM in assay [3]; < 1000 nM in assay [4]; > 1000 nM in assay [5]; > 1000 nM in assay [6]. Besides, the concentration for half-maximal inhibition (IC50) in assay [7] is < 1000 nM. Also, in assay [2], the “CDK1/CDK7: Selectivity of CDK7 inhibition over CDK1 inhibition” value was “A (A=greater than 200 fold)”. For the same molecule, the “CDK2/CDK7: Selectivity of CDK7 inhibition over CDK2 inhibition” value in assay [2] is on record as “A (A=greater than 200 fold)”. In addition, the “CDK5/CDK7: Selectivity of CDK7 inhibition over CDK5 inhibition” value in assay [2] is listed as “A (A=greater than 200 fold)”.
For `CC(C)c1cnn2c(NCc3c(Cl)cccc3-c3ccc4ccccc4n3)nc(N3CCCC[C@H]3CCO)nc12` [Compound 262], the concentration for half-maximal inhibition (IC50) in assay [1] was > 10000 nM; in assay [2] it was 100 to 1000 nM; in assay [3] it was > 1000 nM; in assay [4], > 10000 nM; in assay [5], > 1000 nM; in assay [6] it was > 1000 nM. In assay [7], the IC50 was > 10000 nM. Moreover, in assay [2], the “CDK1/CDK7: Selectivity of CDK7 inhibition over CDK1 inhibition” value is listed as “B (B=less than 200 fold, but greater than 20 fold)”. Further, in assay [2], the “CDK2/CDK7: Selectivity of CDK7 inhibition over CDK2 inhibition” value is given as “B (B=less than 200 fold, but greater than 20 fold)”. Moreover, the “CDK5/CDK7: Selectivity of CDK7 inhibition over CDK5 inhibition” value in assay [2] was “B (B=less than 200 fold, but greater than 20 fold)”.
Turning to `Cc1cn(-c2cccc(Cl)c2CNc2nc(N3CCC(N)CC3)nc3c(C(C)C)cnn23)nc1C(C)(C)O` [Compound 256], the half-inhibitory concentration (IC50) in assay [1] is ≤ 1000 nM; in assay [2], < 100 nM; in assay [3], > 1000 nM; in assay [4], < 1000 nM; in assay [5] it was > 1000 nM; in assay [6] it was > 1000 nM. The half-maximal inhibitory concentration (IC50) in assay [7] is < 1000 nM. The “CDK1/CDK7: Selectivity of CDK7 inhibition over CDK1 inhibition” value in assay [2] is “A (A=greater than 200 fold)”. Moreover, the “CDK2/CDK7: Selectivity of CDK7 inhibition over CDK2 inhibition” value in assay [2] was “A (A=greater than 200 fold)”. In addition, the “CDK5/CDK7: Selectivity of CDK7 inhibition over CDK5 inhibition” value in assay [2] is given as “A (A=greater than 200 fold)”.
As to `CC(C)c1cnn2c(NCc3ccccc3-c3ccc4ccccc4n3)nc(OC3CCC(O)CC3)nc12` (stereo not shown) [Compound 269], the IC50 was ≤ 1000 nM in assay [1]; < 100 nM in assay [2]; > 1000 nM in assay [3]; < 1000 nM in assay [4]; > 1000 nM in assay [5]; > 1000 nM in assay [6]. For the same molecule, the IC50 in assay [7] was 1000 to 10000 nM. The “CDK1/CDK7: Selectivity of CDK7 inhibition over CDK1 inhibition” value in assay [2] is given as “A (A=greater than 200 fold)”. Besides, the “CDK2/CDK7: Selectivity of CDK7 inhibition over CDK2 inhibition” value in assay [2] was “A (A=greater than 200 fold)”. Besides, the “CDK5/CDK7: Selectivity of CDK7 inhibition over CDK5 inhibition” value in assay [2] is reported as “A (A=greater than 200 fold)”.
On to `CC(C)c1cnn2c(NCc3c(Cl)cccc3-c3ccc4ccccc4n3)nc(N3CCCC[C@H]3CO)nc12` [Compound 264], for which the concentration for half-maximal inhibition (IC50) is > 10000 nM in assay [1]; 100 to 1000 nM in assay [2]; > 1000 nM in assay [3]; > 10000 nM in assay [4]; > 1000 nM in assay [5]; > 1000 nM in assay [6]. Moreover, the half-inhibitory concentration (IC50) in assay [7] is > 10000 nM. The “CDK1/CDK7: Selectivity of CDK7 inhibition over CDK1 inhibition” value in assay [2] is given as “B (B=less than 200 fold, but greater than 20 fold)”. In addition, the “CDK2/CDK7: Selectivity of CDK7 inhibition over CDK2 inhibition” value in assay [2] was “B (B=less than 200 fold, but greater than 20 fold)”. In addition, in assay [2], the “CDK5/CDK7: Selectivity of CDK7 inhibition over CDK5 inhibition” value is given as “B (B=less than 200 fold, but greater than 20 fold)”.
On to `CC(C)c1cnn2c(NCc3ccccc3-c3ccc4ccccc4n3)nc(N3CCCC[C@H]3CO)nc12` [Compound 263], for which the IC50 is > 10000 nM in assay [1]; 100 to 1000 nM in assay [2]; > 1000 nM in assay [3]; > 10000 nM in assay [4]; > 1000 nM in assay [5]; > 1000 nM in assay [6]. The IC50 in assay [7] was > 10000 nM. The “CDK1/CDK7: Selectivity of CDK7 inhibition over CDK1 inhibition” value in assay [2] was “B (B=less than 200 fold, but greater than 20 fold)”. In addition, in assay [2], the “CDK2/CDK7: Selectivity of CDK7 inhibition over CDK2 inhibition” value was “B (B=less than 200 fold, but greater than 20 fold)”. In assay [2], the “CDK5/CDK7: Selectivity of CDK7 inhibition over CDK5 inhibition” value is recorded as “B (B=less than 200 fold, but greater than 20 fold)”.
Turning to `CC(C)c1cnn2c(NCc3ccccc3-c3ccc4ccccc4n3)nc(NCC3CCOCC3)nc12` [Compound 267], the IC50 in assay [1] is 1000 to 10000 nM; in assay [2] it was 100 to 1000 nM; in assay [3], > 1000 nM; in assay [4] it was 1000 to 10000 nM; in assay [5], > 1000 nM; in assay [6], > 1000 nM. In addition, the IC50 in assay [7] is > 10000 nM. Also, the “CDK1/CDK7: Selectivity of CDK7 inhibition over CDK1 inhibition” value in assay [2] is given as “B (B=less than 200 fold, but greater than 20 fold)”. For the same molecule, in assay [2], the “CDK2/CDK7: Selectivity of CDK7 inhibition over CDK2 inhibition” value is reported as “B (B=less than 200 fold, but greater than 20 fold)”. Further, the “CDK5/CDK7: Selectivity of CDK7 inhibition over CDK5 inhibition” value in assay [2] is “B (B=less than 200 fold, but greater than 20 fold)”.
